The source of these data is PMC9647539, “Computational and functional studies of the PI(4,5)P2 binding site of the TRPM3 ion channel reveal interactions with other regulators” (The Journal of Biological Chemistry, 2022).

pEC50: −log10 of the molar value.

In assay [1] the target is T1, hTRPM3 or its mutant N991A (Homo sapiens, UniProt Q9HCF6, N1016A).
T1 construct: expressed in transfected cells; host or cells: Xenopus laevis oocytes (excised inside-out patches)
T1 sequence (Q9HCF6 1-1325 isoform Q9HCF6-10 N991A): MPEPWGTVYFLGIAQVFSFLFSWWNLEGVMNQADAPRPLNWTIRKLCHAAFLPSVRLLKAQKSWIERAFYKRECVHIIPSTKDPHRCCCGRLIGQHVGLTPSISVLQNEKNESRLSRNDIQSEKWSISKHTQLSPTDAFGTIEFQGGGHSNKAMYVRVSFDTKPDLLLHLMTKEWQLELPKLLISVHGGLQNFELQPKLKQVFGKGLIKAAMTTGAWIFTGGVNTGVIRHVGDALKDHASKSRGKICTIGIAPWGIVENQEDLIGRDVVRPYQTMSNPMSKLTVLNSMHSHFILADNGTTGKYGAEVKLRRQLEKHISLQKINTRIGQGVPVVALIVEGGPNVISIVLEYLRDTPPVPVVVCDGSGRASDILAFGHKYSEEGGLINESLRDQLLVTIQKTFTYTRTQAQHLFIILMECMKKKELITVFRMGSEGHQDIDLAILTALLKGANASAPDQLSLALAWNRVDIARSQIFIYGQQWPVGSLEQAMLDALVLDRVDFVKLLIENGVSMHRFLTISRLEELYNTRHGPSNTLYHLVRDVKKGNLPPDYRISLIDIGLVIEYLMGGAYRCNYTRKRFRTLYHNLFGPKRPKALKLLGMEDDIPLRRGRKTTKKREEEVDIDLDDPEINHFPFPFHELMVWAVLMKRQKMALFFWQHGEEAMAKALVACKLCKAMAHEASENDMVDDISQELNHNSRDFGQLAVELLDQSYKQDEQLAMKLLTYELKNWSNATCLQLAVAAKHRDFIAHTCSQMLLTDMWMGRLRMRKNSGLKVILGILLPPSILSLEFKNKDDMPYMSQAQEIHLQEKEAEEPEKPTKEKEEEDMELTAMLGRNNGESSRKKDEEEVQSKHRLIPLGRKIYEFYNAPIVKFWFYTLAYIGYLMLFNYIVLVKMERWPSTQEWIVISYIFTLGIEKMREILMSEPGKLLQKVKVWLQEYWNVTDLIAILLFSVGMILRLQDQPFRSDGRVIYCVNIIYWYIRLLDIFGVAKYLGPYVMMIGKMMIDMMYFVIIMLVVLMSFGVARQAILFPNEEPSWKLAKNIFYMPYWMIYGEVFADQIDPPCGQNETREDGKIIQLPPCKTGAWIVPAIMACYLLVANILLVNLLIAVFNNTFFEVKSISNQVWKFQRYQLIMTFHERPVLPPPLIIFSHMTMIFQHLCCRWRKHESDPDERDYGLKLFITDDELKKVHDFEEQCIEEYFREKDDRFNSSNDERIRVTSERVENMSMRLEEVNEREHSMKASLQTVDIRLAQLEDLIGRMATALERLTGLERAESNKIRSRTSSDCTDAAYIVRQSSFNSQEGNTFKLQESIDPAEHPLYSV
In words: Excised inside-out patch clamp, relative effect of PI(4)P compared to PI(4,5)P2. It is filed as cell-based. The settings on record: 25 μM diC8 PI(4)P vs 25 μM diC8 PI(4,5)P2, 100 μM PregS in pipette. Here is the method:
Oocytes were placed in a recording chamber filled with bath solution, which contained 97 mM KCl, 5 mM EGTA, 10 mM Hepes, pH 7.4. Before starting measurements, the vitelline layer was carefully removed with forceps without damaging the oocyte. Then a giga-ohm seal was formed using a borosilicate glass pipette (World Precision Instruments) with resistance from 0.8 to 1 MΩ. The pipette was filled with a solution containing 97 mM NaCl, 2 mM KCl, 1 mM MgCl2, 5 mM Hepes, and 100 μM PregS at pH 7.4. Currents were measured by an Axopatch 200B amplifier and analyzed with the pClamp 9.0 software. Compounds were dissolved in the bath solution and delivered to the inner side of cell membrane by a custom-made gravity-driven perfusion system. Either 25 μM PI(4,5)P2, 25 μM PI(4)P, or 10 μM AASt PI(4,5)P2 was applied in these experiments to reactivate TRPM3. At the end of every recording, 30 μg/ml Poly-Lys (Poly-K) was applied.

For assay [2], the system named is Rat TRPM8 or its mutants. Put plainly: Menthol concentration dependence, TEVC in Xenopus oocytes. It is filed as cell-based. The settings on record: 100 mV; R851A and W682Q mutants. On the procedure:
(§1) To express exogenous proteins, RNA was microinjected into oocytes using a nanoliter-injector system (Warner Instruments). RNA was in vitro transcribed from the linearized pGEMSH vectors, which contained the complementary DNA clones for hTRPM3 ([38]) rat TRPM8, human M2 muscarinic (hM2) receptor, or Gβγ subunits by using the mMessage mMachine T7 Transcription Kit (Thermo Fisher Scientific). […] For coexpression of TRPM3 constructs and Gβ1γ2 subunits, 40 ng of TRPM3 was coinjected with 5 ng Gβ1 and 5 ng Gγ2. In the case of coexpressing TRPM3 and hM2 receptors, these two were injected at 1:1 ratio, 40 ng each. […]
(§2) Oocytes were placed in extracellular solution, which contained 97 mM NaCl, 2 mM KCl, 1 mM MgCl2, and 5 mM Hepes, pH 7.4. Currents were measured with a protocol consisting a voltage step from the 0 mV holding potential to −100 mV, followed by a ramp to 100 mV once every 0.5 s with a GeneClamp 500B amplifier and analyzed with the pClamp 9.0 software (Molecular Devices). Currents were recorded by thin wall glass pipettes that contained inner filament and were filled with 1% agarose in 3 M KCl. […] For wortmannin experiments specifically, PregS, or menthol-induced currents were measured, then the same oocyte was incubated with 35 μM wortmannin for 2 h, and currents were measured again using the same protocol. […]

Assay [3] concerns mouse TRPM3α2 (mTRPM3α2) or its mutant N993A. In words: Whole-cell patch clamp with rapamycin-inducible pseudojanin phosphatase in HEK293 cells. It counts as cell-based. The settings on record: 100 nM rapamycin. Here is the method:
Human embryonic kidney 293 cells were purchased from American Type Culture Collection (catalog number: CRL-1573). Human embryonic kidney 293 cells were cultured in minimum essential medium supplemented with 10% fetal bovine serum and 100 IU/ml penicillin plus 100 μg/ml streptomycin. Cells were incubated in 5% CO2 at 37 °C. Cells were tested to confirm that they were not infected by mycoplasma. Cells were used up to 25 passages and then discarded. Cells were transiently transfected with complementary DNA encoding different TRPM3 constructs (200–400 ng) using the Effectene reagent (Qiagen). mTRPM3α2 and its mutant were cloned into the bicistronic pCAGGS/IRES-GFP vector. The components of rapamycin-inducible pseudojanin phosphatases ([40]) were cotransfected with mTRPM3α2 at 1:1 ratio.
After 24 h of transfection, cells were plated on poly-D-lysine–coated 12 mm cover slips. Experiments were performed 48 to 72 h after transfection. […] After formation of gigaohm-resistance seals, the whole cell configuration was established, and currents were recorded by applying a ramp protocol once every 1 s. […] Data were collected and analyzed with the pClamp10.6 (Clampex) acquisition software (Molecular Devices) and further analyzed and plotted with Prism 9 (GraphPad by Dotmatics). […]
A general note: The patch-clamp technique gives a direct electrical read-out from membranes.

For assay [4], the system named is Rat TRPM8 or its mutants. Put plainly: Wortmannin inhibition of menthol-induced currents (PI(4,5)P2 depletion), TEVC in Xenopus oocytes. It is filed as cell-based. The settings on record: 35 μM wortmannin 2 h; 500 μM menthol; 100 mV; R851Q and W682Q mutants. Here is the method: as §1, §2
Assay [5] deals with Human TRPM3_1325 splice variant or its mutants. In words: Wortmannin inhibition of PregS-induced currents (PI(4,5)P2 depletion), TEVC in Xenopus oocytes. It is filed as cell-based. The settings on record: 35 μM wortmannin 2 h; for inhibition of PregS-induced currents after wortmannin treatment, compared with WT TRPM3: 100 mV; for inhibition of PregS-induced currents after wortmannin treatment, WT vs disease mutants: V990M and P1090Q. Here is the method:
Next, we mutated the predicted PI(4,5)P2-interacting residues in TRPM3 and tested the effects of the mutations on sensitivity to inhibition by decreasing PI(4,5)P2 levels. We expressed the WT and mutant channels in Xenopus oocytes and performed two-electrode voltage clamp (TEVC) experiments. We stimulated channel activity with 50 μM PregS and measured current amplitudes, then incubated the oocytes with 35 μM wortmannin for 2 h, and measured PregS-induced currents in the same oocytes (Fig. 3, A and B). Wortmannin at this concentration inhibits phosphatidylinositol 4-kinases and has been used to inhibit the activity of PI(4,5)P2-dependent ion channels ([39]). […] Mutating a PI(4,5)P2-interacting residue is expected to increase inhibition by high concentrations of wortmannin ([39]). […] We also generated two additional mutations in the TRP domain in residues that are not in contact with PI(4,5)P2, K1128Q and R1141Q.
To express exogenous proteins, RNA was microinjected into oocytes using a nanoliter-injector system (Warner Instruments). RNA was in vitro transcribed from the linearized pGEMSH vectors, which contained the complementary DNA clones for hTRPM3 ([38]) rat TRPM8, human M2 muscarinic (hM2) receptor, or Gβγ subunits by using the mMessage mMachine T7 Transcription Kit (Thermo Fisher Scientific). […] For coexpression of TRPM3 constructs and Gβ1γ2 subunits, 40 ng of TRPM3 was coinjected with 5 ng Gβ1 and 5 ng Gγ2. In the case of coexpressing TRPM3 and hM2 receptors, these two were injected at 1:1 ratio, 40 ng each. Oocytes were used for electrophysiological experiments after 48 to 72 h incubation at 16 °C after RNA injection.
Oocytes were placed in extracellular solution, which contained 97 mM NaCl, 2 mM KCl, 1 mM MgCl2, and 5 mM Hepes, pH 7.4. Currents were measured with a protocol consisting a voltage step from the 0 mV holding potential to −100 mV, followed by a ramp to 100 mV once every 0.5 s with a GeneClamp 500B amplifier and analyzed with the pClamp 9.0 software (Molecular Devices). Currents were recorded by thin wall glass pipettes that contained inner filament and were filled with 1% agarose in 3 M KCl. In all TEVC experiments, different concentrations of PregS were applied to activate TRPM3 channels, and various concentrations of menthol were used to trigger responses of TRPM8 channels. The hM2 receptor was activated by 5 μM acetylcholine. For wortmannin experiments specifically, PregS, or menthol-induced currents were measured, then the same oocyte was incubated with 35 μM wortmannin for 2 h, and currents were measured again using the same protocol. In the bar graphs in Figure 3, the individual panels show experiments that were performed on the same day.

The test system is the same in assay [6]. Set-up: method as in PMID 26123195. As to conditions: 35 nM wortmannin (selectively inhibits PI3K); cited from earlier work.
Assay [7] deals with TRPM3_1325 splice variant or its mutants. Put plainly: PregS concentration dependence, TEVC in Xenopus oocytes. It is filed as cell-based, human. The settings on record: 100 mV; N991A and K992A mutants. Here is the method: as §1, §2
For a further assay, the system named is hTRPM3 V990M. Set-up: method as in PMID 32343227. As to conditions: V990M mutant; read-out: EC50 concentration of PregS; cited from earlier work.
In a further assay the test system is hTRPM3. Set-up: method as in PMID 32343227. The settings on record: hTRPM3 WT; read-out: EC50 concentration of PregS; cited from earlier work.
In the next assay the test system is hTRPM3 P1090Q. Also noted: method as in PMID 32343227. As to conditions: P1090Q mutant; read-out: EC50 concentration of PregS; cited from earlier work.

With `CCCCCCCC(=O)OC[C@H](COP(=O)(O)O[C@H]1[C@H](O)[C@@H](O)[C@H](OP(=O)(O)O)[C@@H](O)[C@H]1O)OC(=O)CCCCCCC` [PI(4)P], the “relative effect of PI(4)P compared with PI(4,5)P2” value in assay [1] is listed as “did not change”.
As for `CC1CCC(C(C)C)C(O)C1` (centres unmarked) [menthol], the “menthol dose response, compared with WT TRPM8” value in the assay with Rat TRPM8 or its mutants [2] is “right shifted”.
For the compound `CO[C@H]1C[C@@H]2CC[C@@H](C)[C@@](O)(O2)C(=O)C(=O)N2CCCC[C@H]2C(=O)O[C@H]([C@H](C)C[C@@H]2CC[C@@H](O)[C@H](OC)C2)CC(=O)[C@H](C)/C=C(\C)[C@@H](O)[C@@H](OC)C(=O)[C@H](C)C[C@H](C)/C=C/C=C/C=C/1C` [rapamycin], the “inhibition by rapamycin (PI(4,5)P2 depletion), N993A compared with WT mTRPM3α2” value in assay [3] (currents induced by 25 μM PregS plus 10 μM clotrimazole) is recorded as “significantly larger inhibition”; in assay [3] (currents stimulated with 25 μM PregS), “significantly higher inhibition”.
`COC[C@H]1OC(=O)c2coc3c2[C@@]1(C)C1=C(C3=O)[C@@H]2CCC(=O)[C@@]2(C)C[C@H]1OC(C)=O` [wortmannin]: the “inhibition of menthol-induced currents by wortmannin, compared with WT TRPM8” value with Rat TRPM8 or its mutants [4] was “significantly higher level of inhibition”. Besides, the “inhibition of PregS-induced currents after wortmannin treatment, compared with WT TRPM3” value is reported as “small but significant increase” in assay [5] (50 μM PregS, R1141Q mutant); “significantly higher inhibition” in assay [5] (50 μM PregS, mutants W761F, N991A, K992A and R1131Q). Further, the “inhibition of PregS-induced currents after wortmannin treatment, WT vs disease mutants” value in assay [5] (50 μM PregS) is recorded as “inhibited to a similar extent”; in assay [5] (PregS at respective EC50 (17, 0.6, 7 μM)) it was “inhibited to a similar extent to WT channels”. In assay [6], the “inhibition of TRPM3 by wortmannin” value is “did not inhibit TRPM3”.
Regarding pregnenolone sulfate [PregS], the “PregS dose response, compared with WT TRPM3” value in assay [7] is given as “shifted the PregS dose response to the right”. For the same compound, the values for the pEC50 in the assay on hTRPM3 V990M, in the assay on hTRPM3 and in the assay with hTRPM3 P1090Q were 6.22, 4.77 and 5.15, respectively.
